The values below come from patent US20240308992A1 (Biopolar Youtang(Guangdong) Pharmaceutical Co., Ltd., priority 2021, published 2024).

Counter-ions that a name gives are not always drawn.

For this test, the target named is T1, Drak2 (Homo sapiens, UniProt O94768).
T1 sequence (O94768 1-372): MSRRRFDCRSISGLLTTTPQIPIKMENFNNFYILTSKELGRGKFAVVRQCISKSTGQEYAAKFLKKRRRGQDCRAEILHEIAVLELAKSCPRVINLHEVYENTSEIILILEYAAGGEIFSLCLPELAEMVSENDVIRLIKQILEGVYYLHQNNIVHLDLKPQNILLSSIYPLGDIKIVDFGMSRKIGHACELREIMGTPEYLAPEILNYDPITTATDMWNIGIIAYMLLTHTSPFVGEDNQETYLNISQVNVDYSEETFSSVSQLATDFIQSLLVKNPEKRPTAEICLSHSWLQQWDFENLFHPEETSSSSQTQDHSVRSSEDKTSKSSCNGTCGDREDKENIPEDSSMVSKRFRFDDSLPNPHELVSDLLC
The test can be described thus: Drak2 activity test, ADP-Glo kinase assay (Promega). It is filed as biochemical. As to conditions: inhibition of Drak2 kinase activity, 2 h room temperature, activity range classes, read-out: IC50_Drak2. (In general: ADP-Glo turns the ADP formed in a reaction into a luminescent signal.)

As to `CCCCC(=O)Nc1csc(-c2cncc(-c3ccc(C4=NOC(=O)C4)c(OC)c3)n2)c1` [Example A37, N-(5-(6-(3-methoxy-4-(5-oxo-4,5-dihydroisoxazol-3-yl)phenyl)pyrazin-2-yl)thiophen-3-yl)pentanamide], the IC50 fell in the range of 101 to 1000 nM.

Regarding `COc1cc(-c2cncc(-c3cc(NC(=O)CC4(N)CCC4)cs3)n2)ccc1C(=O)N(C)C1CCN(C)CC1` [Example B94, 4-(6-(4-(2-(1-aminocyclobutyl)acetamido)thiophen-2-yl)pyrazin-2-yl)-2-methoxy-N-methyl-N-(1-methylpiperidin-4-yl)benzamide], the IC50 is 101 to 1000 nM.

As to `O=C(CC1CCC1)Nc1csc(-c2cncc(-c3ccc4cnn(C5CC5)c4c3)n2)c1` [Example 212, 2-Cyclobutyl-N-{5-[6-(1-cyclopropylindazol-6-yl)pyrazin-2-yl]thiophen-3-yl}acetamide], the IC50 fell in the range of 101 to 1000 nM.

In the case of `CCCCC(=O)Nc1csc(-c2cncc(-c3ccc(C(=O)Nc4nncs4)c(OC)c3)n2)c1` [Example B24, 2-methoxy-4-(6-(4-pentanamidothiophen-2-yl)pyrazin-2-yl)-N-(1,3,4-thiadiazol-2-yl)benzamide], the IC50 fell in the range of 1000 to 10000 nM.

Regarding `COc1cc(-c2cncc(-c3cc(NC(=O)CC4CCC4)cs3)n2)ccc1OCC(=O)N1CCN(C2CCN(C)CC2)CC1` [Example 192, 2-Cyclobutyl-N-(5-{6-[3-methoxy-4-({2-[4-(1-methylhexahydropyridin-4-yl)piperazin-1-yl]-2-oxoethyl}oxy)phenyl]pyrazin-2-yl}thiophen-3-yl) acetamide], the IC50 fell in the range of 11 to 100 nM.

Consider `COc1cc(-c2cncc(-c3cc(NC(=O)CC4CC4)cs3)n2)ccc1CN1CCOCC1` [Example B34, 2-cyclopropyl-N-(5-(6-(3-methoxy-4-(morpholinomethyl)phenyl)pyrazin-2-yl)thiophen-3-yl)acetamide], for which the IC50 is 101 to 1000 nM.

On to `COc1cc(-c2cncc(-c3cc(NC(=O)CC4CCC4)cs3)n2)ccc1-c1ncc2c(n1)CCN(Cc1ccccc1)C2` [Example 208, N-(5-(6-(4-(6-benzyl-5,6,7,8-tetrahydropyrido [4,3-d]pyrimidin-2-yl)-3-methoxyphenyl)pyrazin-2-yl)thiophen-3-yl)-2-cyclobutyl Acetamide], for which the IC50 fell in the range of 101 to 1000 nM.

In the case of `CCCCNC(=O)c1csc(-c2cncc(-c3ccc(OC)c(OC)c3)n2)c1` [Example 182, N-butyl-5-[6-(3,4-dimethoxyphenyl)pyrazin-2-yl] thiophen-3-formamide], the IC50 was in the range of 101 to 1000 nM.

For `CCCCC(=O)Nc1csc(-c2cncc(-c3ccc(C(=O)N(C)C4CCN(C5CC5)CC4)c(OC)c3)n2)c1` [Example B69, N-(1-cyclopropylpiperidin-4-yl)-2-methoxy-N-methyl-4-(6-(4-pentanamidothiophen-2-yl)pyrazin-2-yl)benzamide], the IC50 was less than 10 nM.

On to `CN1CCC(C(=O)N2CCOc3cc(-c4cncc(-c5cc(NC(=O)CC6CCC6)cs5)n4)ccc32)CC1` [Example E1, 2-cyclobutyl-N-(5-(6-(4-(1-methylpiperidine-4-carbonyl)-3,4-dihydro-2H-benzo[b][1,4]oxazin-7-yl)pyrazin-2-yl)thiophen-3-yl)acetamide], for which the IC50 lay within 11 to 100 nM.

Turning to `COc1cc(-c2cncc(-c3cc(NC(=O)CC4CC4)cs3)n2)ccc1S(C)(=O)=O` [Example A43, 2-cyclopropyl-N-(5-(6-(3-methoxy-4-(methylsulfonyl)phenyl)pyrazin-2-yl)thiophen-3-yl)acetamide], the IC50 was 11 to 100 nM.

Take `COc1cc(-c2cncc(-c3cc(NC(=O)CC4CC(C(C)(F)F)C4)cs3)n2)ccc1C(=O)N(C)C1CCN(C)CC1` (stereo not shown) [Example B92, 4-(6-(4-(2-(3-(1,1-difluoroethyl)cyclobutyl)acetamido)thiophen-2-yl)pyrazin-2-yl)-2-methoxy-N-methyl-N-(1-methylpiperidin-4-yl)benzamide]: the IC50 was 11 to 100 nM.

`COc1cc(-c2cncc(-c3cc(NC(=O)CC4CCCC4)cs3)n2)ccc1C(=O)N1CCN(C)CC1` [Example B40, 2-cyclopentyl-N-(5-(6-(3-methoxy-4-(4-methylpiperazine-1-carbonyl)phenyl)pyrazin-2-yl)thiophen-3-yl)acetamide]: the IC50 lay in the range of 11 to 100 nM.

Consider `CCCCCCC(=O)Nc1csc(-c2cncc(-c3ccc(C(=O)Nc4nnn[nH]4)c(OC)c3)n2)c1` [Example B17, 2-methoxy-4-(6-(4-heptanamidothiophen-2-yl)pyrazin-2-yl)-N-(1H-tetrazol-5-yl)benzamide], for which the IC50 is 1000 to 10000 nM.

As to `CCCCC(=O)Nc1csc(-c2cncc(-c3ccc(F)c(O)c3)n2)c1` [Example A41, N-(5-(6-(4-fluoro-3-hydroxyphenyl)pyrazin-2-yl)thiophen-3-yl)pentanamide], the IC50 lay within 101 to 1000 nM.

`CN1CCC(C(=O)N2CCOc3cc(-c4cncc(-c5cc(NC(=O)CC6CC6)cs5)n4)ccc32)CC1` [Example E2, 2-cyclopropyl-N-(5-(6-(4-(1-methylpiperidin-4-carbonyl)-3,4-dihydro-2H-benzo[b][1,4]oxazin-7-yl)pyrazine-2-yl)thiophene-3-yl) acetamide]: the IC50 is 11 to 100 nM.

Turning to `CCCCC(=O)Nc1csc(-c2cncc(-c3ccc(C(=O)N4CCOCC4)c(OC)c3)n2)c1` [Example B29, N-(5-(6-(3-methoxy-4-(morpholine-4-carbonyl)phenyl)pyrazin-2-yl)thiophen-3-yl)pentanamide], the IC50 was in the range of 11 to 100 nM.

Turning to `COc1cc(-c2cncc(-c3cc(NC(=O)CC4CC(OC)C4)cs3)n2)ccc1C(=O)N(C)C1CC2(C1)CN(C)C2` (stereo not shown) [Example 206, 2-Methoxy-4-(6-(4-(2-(3-methoxycyclobutyl)acetylamino)thiophen-2-yl)pyrazin-2-yl)-N-methyl-N-(2-methyl-2-azaspiro [3.3]heptane-6-yl) benzamide], the IC50 was 11 to 100 nM.

In the case of `CCCCC(=O)Nc1csc(-c2cncc(-c3ccc(F)c(F)c3)n2)c1` [Example A27, N-(5-(6-(3,4-difluorophenyl)pyrazin-2-yl)thiophen-3-yl)pentanamide], the IC50 lay in the range of 1000 to 10000 nM.

On to `CCCCC(=O)Nc1csc(-c2cncc(-c3ccco3)n2)c1` [Example 220, N-{5-[6-(furyl-2-yl)pyrazin-2-yl]thiophen-3-yl}pentanamide], for which the IC50 was 101 to 1000 nM.

Take `COc1cc(-c2cncc(-c3cc(NC(=O)CC4CCCC4)cs3)n2)ccc1C(=O)Nc1cnn(C)c1OC` [Example B44, 4-(6-(4-(2-cyclopentylacetamido)thiophen-2-yl)pyrazin-2-yl)-2-methoxy-N-(5-methoxy-1-methyl-1H-pyrazol-4-yl)benzamide]: the IC50 fell in the range of 101 to 1000 nM.

On to `COc1cc(-c2cncc(-c3cc(NC(=O)CC4CCC4)cs3)n2)ccc1CN1CCOCC1` [Example B35, 2-cyclobutyl-N-(5-(6-(3-methoxy-4-(morpholinomethyl)phenyl)pyrazin-2-yl)thiophen-3-yl)acetamide], for which the IC50 fell in the range of 101 to 1000 nM.

For `COc1cc(-c2cncc(-c3cc(NC(=O)CC4CCC4)cs3)n2)ccc1OC(O)CN1CCOCC1=O` (stereo not shown) [Example 171], the IC50 fell in the range of 11 to 100 nM.

Regarding `COc1cc(-c2cncc(-c3cc(NC(=O)CC4CC(C(C)=O)C4(C)C)cs3)n2)ccc1C(=O)N(C)C1CCN(C)CC1` (stereo not shown) [Example B87, 4-(6-(4-(2-(3-acetyl-2,2-dimethylcyclobutyl)acetamido)thiophen-2-yl)pyrazin-2-yl)-2-methoxy-N-methyl-N-(1-methylpiperidin-4-yl)benzamide], the IC50 was 101 to 1000 nM.

`COc1cc(-c2cncc(-c3cc(NC(=O)CC4CC4)cs3)n2)ccc1S(=O)(=O)N(C)C1CCN(C)CC1` [Example B103, 2-cyclopropyl-N-(5-(6-(3-methoxy-4-(N-methyl-N-(1-methylpiperidin-4-yl)sulfamoyl)phenyl)pyrazin-2-yl)thiophen-3-yl)acetamide]: the IC50 lay within 11 to 100 nM.

As for `COc1ccc(-c2cncc(-c3cc(N)cs3)n2)cc1OC` [Example A2, 5-(6-(3,4-dimethoxyphenyl)pyrazin-2-yl)thiophen-3-amine hydrochloride], the IC50 lay within 1000 to 10000 nM.

Consider `CCCCC(=O)Nc1csc(-c2cncc(-c3cc(F)c(C(=O)N(C)C4CCN(C)CC4)c(F)c3)n2)c1` [Example B74, 2,6-difluoro-N-methyl-N-(1-methylpiperidin-4-yl)-4-(6-(4-pentanamidothiophen-2-yl)pyrazin-2-yl)benzamide], for which the IC50 lay in the range of 101 to 1000 nM.

As for `COc1ccc(-c2cncc(-c3cc(NC(=O)C4CCC4)cs3)c2C#N)cc1OC` [Example C2, N-(5-(4-cyano-5-(3,4-dimethoxyphenyl)pyridin-3-yl)thiophen-3-yl)cyclobutanecarboxamide], the IC50 lay in the range of 1000 to 10000 nM.

With `COc1cc(-c2cncc(-c3cc(NC(=O)CC4CC4)cs3)n2)ccc1C(=O)N1CCOCC1` [Example B31, 2-cyclopropyl-N-(5-(6-(3-methoxy-4-(morpholine-4-carbonyl)phenyl)pyrazin-2-yl)thiophen-3-yl)acetamide], the IC50 was 11 to 100 nM.

For `CCCCC(=O)Nc1csc(-c2cncc(-c3ccc(C(=O)N(C4CC4)C4CCN(C5CC5)CC4)c(OC)c3)n2)c1` [Example B78, N-cyclopropyl-N-(1-cyclopropylpiperidin-4-yl)-2-methoxy-4-(6-(4-pentanamidothiophen-2-yl)pyrazin-2-yl)benzamide], the IC50 was in the range of 11 to 100 nM.

For `COc1cc(-c2cncc(-c3cc(NC(=O)CC45CC(C4)C5)cs3)n2)ccc1C(=O)Nc1nnco1` [Example 204, 4-[6-(4-{[2-(bicyclo [1.1.1]penta-1-yl)acetyl]amino}thiophen-2-yl)pyrazin-2-yl]-2-methoxy-N-(1,3,4-oxadiazol-2-yl) benzamide], the IC50 lay in the range of 101 to 1000 nM.
